Laboratory results taken from patent US20240400545A1, “COMPOUND SERVING AS KAT6 INHIBITOR” (Hangzhou Innogate Pharma Co., Ltd., priority 2021, published 2024).
Like-named read-outs stand apart in the source and are kept apart here.

Columns and labels:
[1] = Pharmacokinetic study in rats (intragastrical administration); conditions: plasma
Experimental: (§1) All measurement data were collected and processed by Masslynx V4.1 software, and the data were calculated and processed by Microsoft Excel. The statistical moment method of WinNonLin 8.0 software was used to calculate the pharmacokinetic parameters. These mainly include kinetic parameters Tmax, T1/2, Cmax, AUC0-24 h etc. Column: ACQUITY UPLC BEH C18 (2.1 mm×50 mm, 1.7 μm); column temperature 40° C.; mobile phase A is water (0.1% formic acid), mobile phase B is acetonitrile, flow rate is 0.350 mL/min, gradient elution is adopted, the elution gradient is 0.50 min: 10% B; 1.50 min: 90% B; 2.50 min: 90% B; 2.51 min: 10% B; 3.50 min: stop. Injection volume: 1 μL.
(§2) Animals: 3 male SD rats with a weight range of 200-220 g were purchased and kept in the laboratory of the Experimental Animal Center for 2 days and then used. They were fasted for 12 hours predose and 4 hours after dosing. Drinking water was free during the test. After the rats were gavage, blood samples were taken according to the established time point.
(§3) Solvent: 0.4% ethanol+0.4% Tween80+99.2% (0.5% methylcellulose M450). Preparation of the solution for intragastrical administration: the compounds were accurately weighed and added to the solvent, and ultrasound was used at room temperature for 5 minutes to completely dissolve the drug, and a 0.3 mg/mL medicinal solution was prepared.
(§4) A single administration was also used to study the pharmacokinetics of the drug sample in rats.
(§5) After intragastrical administration, blood was taken from the orbit at 0.25, 0.5, 1, 2, 4, 8, 10 and 24 hours. Then 50 μL of the plasma sample was taken and added 200 μL of acetonitrile (including internal standard control verapamil 2 ng/mL), vortexed for 3 min and centrifuged at 20000 rcf, 4° C. for 10 min. The supernatant plasma was used for LC-MS/MS analysis.
(§6) The compounds were accurately weighed to prepare different concentrations, and quantitative analysis on mass spectrometry was performed to establish a standard curve, and then the concentration of the above-mentioned compound in the plasma was tested to obtain its concentration at different time points. All measurement data were collected and processed by relevant software, and the statistical moment method was used to calculate the pharmacokinetic parameters (mainly including kinetic parameters Tmax, T1/2, Cmax, AUC0-24 h etc).

[2] = molecular target: KAT6A enzyme (catalytic domain) (Homo sapiens (Human), UniProt Q92794); test: Inhibition of KAT6A enzyme activity ([3H]-acetyl-CoA / H3 (1-21) peptide, Flashplate); format: biochemical; conditions: for inhibition at 0.011 µM: KAT6A, compound concentration 11 nM, read-out: Inhibition % of compounds at the concentration of 11 nM; for IC50: KAT6A catalytic domain, [3H]-acetyl-CoA, substrate peptide H3 (1-21)
Chain of KAT6A enzyme (catalytic domain) (Q92794 504-778): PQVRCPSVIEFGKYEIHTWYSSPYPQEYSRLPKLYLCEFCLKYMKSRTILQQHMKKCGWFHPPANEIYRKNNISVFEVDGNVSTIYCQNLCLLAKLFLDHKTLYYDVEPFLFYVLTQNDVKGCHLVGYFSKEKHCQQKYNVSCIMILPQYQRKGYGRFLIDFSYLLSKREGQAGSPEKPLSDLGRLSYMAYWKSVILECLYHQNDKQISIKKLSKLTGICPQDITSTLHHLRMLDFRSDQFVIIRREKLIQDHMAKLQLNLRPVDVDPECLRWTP
Experimental: No. […] The plate was incubated at room temperature for 1 hour. 10 μL of the stop solution was added to terminate the reaction. 25 μL of the reaction solution was transferred to a Flashplate (Perkin Elmer, Cat. No. […]) and incubated at room temperature for 1 hour. The plate was read using Microbeta. The inhibition rate of the compounds was calculated using the formula of Excel: inhibition %=(Max-Signal)/(Max-Min)*100%. Where max is the value of the DMSO control, min is the value of the non-enzymatic control, and signal is the value of the well where the compound was tested. The curve was fitted using XLFit software and IC50 was calculated.

[3] = rat, in vivo, po, 3 mg/kg
Experimental: as §1, §2, §3, §4, §5, §6

[4] = male SD rats, intragastrical, 1.5 mg/Kg

AUC(0-t) ([1]; male, SD, rat, po, 3 mg/kg) | Cmax ([1]; male, SD, rat, po, 3 mg/kg) | Tmax ([1]; male, SD, rat, po, 3 mg/kg) | half-life ([1]; male, SD, rat, po, 3 mg/kg) | SMILES | IC50 [2] | other results
82200 ng·h/mL | 4830 ng/mL | 2 h | 1480 min | COc1cc(C#CC2CC2)ccc1S(=O)(=O)Nc1noc2cc(Cn3cccn3)cc(OC)c12 [Compound 12] |  | 
3120 ng·h/mL | 229 ng/mL | 2.67 h | 190 min | COc1cc(N2CCC2)ccc1S(=O)(=O)Nc1noc2cc(Cn3cccn3)cc(OC)c12 [Compound 17] |  | inhibition at 0.011 µM [2]: 75%
 |  |  |  | C#Cc1cc(OC)c(S(=O)(=O)Nc2noc3cc(Cn4cccn4)cc(OC)c23)c(OC)c1 [Compound 4] | < 5 nM | AUC0-24h [3]: 109.95871 µg·h/mL; Cmax [3]: 6737.13 ng/mL; T1/2 [3]: 8.04 h; Tmax [3]: 9.33 h
5960 ng·h/mL | 428 ng/mL | 3.33 h | 397 min | COc1cc(C#CC2COC2)cc(OC)c1S(=O)(=O)Nc1noc2cc(Cn3cccn3)cc(OC)c12 [Compound 14] |  | inhibition at 0.011 µM [2]: 67%
 |  |  |  | COc1ccc(OC2CCC2)cc1S(=O)(=O)Nc1noc2cc(Cn3cccn3)cc(OC)c12 [Compound 1] | < 5 nM | AUC0-24h [1, 4]: 4481.07 ng·h/mL; Cmax [1, 4]: 392.76 ng/mL; T1/2 [1, 4]: 2.66 h; Tmax [1, 4]: 3.00 h
32500 ng·h/mL | 2120 ng/mL | 3.33 h | 471 min | COc1cc(C#CC2CC(F)(F)C2)cc(OC)c1S(=O)(=O)Nc1noc2cc(Cn3cccn3)cc(OC)c12 [Compound 15] |  | 
 |  |  |  | COc1ccc(N2CCC2)cc1S(=O)(=O)Nc1noc2cc(Cn3cccn3)cc(OC)c12 [Compound 2] | < 10 nM | 
45300 ng·h/mL | 2790 ng/mL | 2.67 h | 863 min | CC#Cc1ccc(S(=O)(=O)Nc2noc3cc(Cn4cccn4)cc(OC)c23)c(OC)c1 [Compound 16] |  | 
 |  |  |  | C#Cc1ccc(S(=O)(=O)Nc2noc3cc(Cn4cccn4)cc(OC)c23)c(OC)c1 [Compound 11] |  | AUC(0-t) ([1]; male, SD, rat, po, 2 mg/kg): 53700 ng·h/mL; Cmax ([1]; male, SD, rat, po, 2 mg/kg): 6380 ng/mL; Tmax ([1]; male, SD, rat, po, 2 mg/kg): 1.33 h; half-life ([1]; male, SD, rat, po, 2 mg/kg): 317 min
